Test results reported in article PMC13499021, “Cellular Assays for Dynamic Quantification of Deubiquitinase Activity and Inhibition” (Journal of molecular biology, 2023).

Legend:
Format in all cases: cell-based, SARS-CoV-2
SARS2 PL^pro L162F = test system: SARS2 PL^pro L162F
SARS2 PL^pro N267D = test system: SARS2 PL^pro N267D
SARS2 PL^pro N267K = test system: SARS2 PL^pro N267K
SARS2 PL^pro Q269R = test system: SARS2 PL^pro Q269R
SARS2 PL^pro P248L = test system: SARS2 PL^pro P248L
SARS2 PL^pro Y264H = test system: SARS2 PL^pro Y264H
SARS2 PL^pro Y268C = test system: SARS2 PL^pro Y268C
SARS2 PL^pro Y268H = test system: SARS2 PL^pro Y268H

GRL0617
increase in IC50 (SARS2 PL^pro L162F): ~8 fold | impact of mutation on GRL0617 potency (SARS2 PL^pro N267D): little impact | impact of mutation on GRL0617 potency (SARS2 PL^pro N267K): little impact | impact of mutation on GRL0617 potency (SARS2 PL^pro Q269R): little impact | decrease in potency (SARS2 PL^pro P248L): > 10 fold | resistance phenotype in dose response curves (SARS2 PL^pro P248L): near-complete resistance | decrease in potency (SARS2 PL^pro Y264H): > 10 fold | resistance phenotype in dose response curves (SARS2 PL^pro Y264H): near-complete resistance | decrease in potency (SARS2 PL^pro Y268C): > 10 fold | resistance phenotype in dose response curves (SARS2 PL^pro Y268C): near-complete resistance | decrease in potency (SARS2 PL^pro Y268H): > 10 fold
